Test results published in ChEMBL document CHEMBL5370606, “Diterpenoids from Euphorbia fischeriana with Kv1.3 Inhibitory Activity” (J Nat Prod, 2023).

How the values were obtained:
[1] = biological target: T1, Potassium voltage-gated channel subfamily A member 3 (Homo sapiens, UniProt P22001); assay: Inhibition of Kv1.3 (unknown origin) expressed in HEK293 cells at 30 uM at -90 mV holding potential by automated patch-clamp technique relative to control; assay type: cell-based
[2] = biological target: T1, Potassium voltage-gated channel subfamily A member 3; assay: Inhibition of Kv1.3 (unknown origin) expressed in HEK293 cells at 10 uM at -90 mV holding potential by automated patch-clamp technique relative to control; assay type: cell-based
HEK293 = assay: Cytotoxicity against HEK293 cells; assay type: toxicity, cell-based; conditions: human
hERG (KCNH2) [3] = biological target: T2, hERG (KCNH2) (Homo sapiens, UniProt Q12809); assay: Inhibition of human ERG expressed in HEK293 cells at 30 uM at -80 mV holding potential by whole-cell patch clamp method; assay type: toxicity, cell-based; conditions: HEK293 cells that express hERG
T2 sequence (Q12809 whole entry): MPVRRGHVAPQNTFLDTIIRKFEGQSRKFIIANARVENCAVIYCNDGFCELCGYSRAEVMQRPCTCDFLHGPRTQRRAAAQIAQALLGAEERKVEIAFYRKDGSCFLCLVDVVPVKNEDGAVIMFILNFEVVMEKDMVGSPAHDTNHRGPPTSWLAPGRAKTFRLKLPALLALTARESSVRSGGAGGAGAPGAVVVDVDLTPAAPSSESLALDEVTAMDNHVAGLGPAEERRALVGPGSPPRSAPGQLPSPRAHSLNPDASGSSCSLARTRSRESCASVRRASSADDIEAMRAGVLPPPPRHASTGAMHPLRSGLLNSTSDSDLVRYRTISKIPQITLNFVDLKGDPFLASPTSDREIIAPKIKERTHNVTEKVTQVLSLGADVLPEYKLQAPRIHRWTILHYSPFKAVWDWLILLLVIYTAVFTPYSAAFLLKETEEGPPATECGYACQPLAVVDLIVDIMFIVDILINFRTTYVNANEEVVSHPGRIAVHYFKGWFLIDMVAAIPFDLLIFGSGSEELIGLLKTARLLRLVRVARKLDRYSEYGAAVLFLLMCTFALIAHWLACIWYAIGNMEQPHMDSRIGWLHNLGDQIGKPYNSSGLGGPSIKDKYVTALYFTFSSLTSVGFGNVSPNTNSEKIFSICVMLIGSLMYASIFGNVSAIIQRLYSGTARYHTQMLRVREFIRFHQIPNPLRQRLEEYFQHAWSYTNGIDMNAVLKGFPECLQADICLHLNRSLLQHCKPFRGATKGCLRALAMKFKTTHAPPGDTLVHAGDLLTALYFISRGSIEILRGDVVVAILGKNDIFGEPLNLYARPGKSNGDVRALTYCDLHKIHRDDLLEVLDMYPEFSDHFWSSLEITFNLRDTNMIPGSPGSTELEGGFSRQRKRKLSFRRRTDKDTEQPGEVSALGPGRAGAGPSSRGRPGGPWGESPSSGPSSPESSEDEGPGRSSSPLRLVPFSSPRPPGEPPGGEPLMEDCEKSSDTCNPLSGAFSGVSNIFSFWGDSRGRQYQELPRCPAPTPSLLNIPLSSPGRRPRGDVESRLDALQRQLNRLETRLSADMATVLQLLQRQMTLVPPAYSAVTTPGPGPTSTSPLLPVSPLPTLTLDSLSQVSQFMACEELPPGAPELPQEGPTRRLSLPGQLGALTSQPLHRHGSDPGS

[4] = biological target: T1, Potassium voltage-gated channel subfamily A member 3; assay: Inhibition of Kv1.3 (unknown origin) expressed in HEK293 cells at -90 mV holding potential by automated patch-clamp technique; assay type: cell-based
[5] = biological target: Voltage-gated inwardly rectifying potassium channel KCNH2 (Homo sapiens, UniProt Q12809); assay: Inhibition of human ERG expressed in HEK293 cells at -80 mV holding potential by whole-cell patch clamp method; assay type: toxicity, cell-based
Sequence of Voltage-gated inwardly rectifying potassium channel KCNH2 (Q12809 whole entry): as above

Homo sapiens = species: Homo sapiens; assay: Selectivity index, ratio of IC50 for human ERG expressed in HEK293 cells to IC50 for Kv1.3 (unknown origin) expressed in HEK293 cells; assay type: cell-based
hERG (KCNH2) [6] = biological target: T2, hERG (KCNH2); assay: Inhibition of human ERG expressed in HEK293 cells at 10 uM at -80 mV holding potential by whole-cell patch clamp method; assay type: toxicity, cell-based; conditions: HEK293 cells that express hERG

T1 sequence (P22001 whole entry): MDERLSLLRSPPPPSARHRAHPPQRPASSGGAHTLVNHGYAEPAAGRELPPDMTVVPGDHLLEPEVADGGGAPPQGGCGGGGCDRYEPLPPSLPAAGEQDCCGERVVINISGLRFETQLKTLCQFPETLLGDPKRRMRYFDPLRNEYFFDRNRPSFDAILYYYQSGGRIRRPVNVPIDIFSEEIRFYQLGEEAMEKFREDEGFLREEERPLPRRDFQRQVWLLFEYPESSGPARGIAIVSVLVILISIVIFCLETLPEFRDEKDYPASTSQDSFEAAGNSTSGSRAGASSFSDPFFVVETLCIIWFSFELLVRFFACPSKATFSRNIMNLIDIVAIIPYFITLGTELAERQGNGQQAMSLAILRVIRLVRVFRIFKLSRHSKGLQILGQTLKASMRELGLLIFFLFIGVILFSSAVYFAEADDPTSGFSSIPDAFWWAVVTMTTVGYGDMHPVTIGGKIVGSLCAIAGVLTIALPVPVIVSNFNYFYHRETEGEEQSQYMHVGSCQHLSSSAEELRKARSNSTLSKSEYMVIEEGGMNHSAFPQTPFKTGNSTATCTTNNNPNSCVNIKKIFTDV

| SMILES | inhibition [1] [%] | inhibition [2] [%] | Activity (HEK293) | inhibition at 30 µM (hERG (KCNH2) [3]) [%] | IC50 [4] [µM] | IC50 [5] [µM] | Ratio IC50 (Homo sapiens) | inhibition at 10 µM (hERG (KCNH2) [6]) [%] |
| --- | --- | --- | --- | --- | --- | --- | --- | --- |
| CC(=O)O[C@]12C[C@@H](C)[C@H](O)[C@@H]1/C=C(\C)[C@H](O)C[C@@H]1[C@@H](/C=C(\C)C2=O)C1(C)C | 70.6 | 33.5 | Non-Toxic | – | – | – | – | – |
| CCC/C=C\C=C\C(=O)O[C@@H]1C[C@H]2[C@@H](/C=C(\C)C(=O)[C@@]3(OC(C)=O)C[C@@H](C)[C@H](O)[C@@H]3/C=C/1C)C2(C)C | 77.7 | 39.8 | Non-Toxic | – | – | – | – | – |
| CC(=O)OCC1=C[C@@H]2C(=O)[C@]3(C=C(C)[C@H](O)[C@@]3(O)[C@@H]1O)[C@H](C)C[C@@H]1[C@H]2C1(C)C | 12.5 | – | Non-Toxic | 23.3 | – | – | – | – |
| Fc1ccc([C@@H]2CCNC[C@H]2COc2ccc3c(c2)OCO3)cc1 [PAROXETINE] | 35.1 | – | Non-Toxic | – | – | – | – | – |
| CC(=O)O[C@H]1[C@@H](C)/C=C/C(C)(C)C(=O)CC(=O)/C(C)=C/[C@H]2[C@@H](OC(=O)c3ccccc3)[C@H](C)C[C@@]21O | 77.5 | 42.9 | Non-Toxic | – | – | – | – | – |
| C=C1C[C@@]23CC[C@@H]4C(C)(C)[C@H](O)CC[C@@]4(C)[C@@H]2C[C@@H]1[C@@H](O)C3=O | 10.4 | – | Non-Toxic | – | – | – | – | – |
| CC(=O)O[C@]12C[C@@H](C)[C@H](O)[C@@H]1/C=C(\C)[C@H](O)C[C@H]1[C@@H](/C=C(\C)C2=O)C1(C)C | 67.5 | 21.7 | Non-Toxic | – | – | – | – | – |
| CC1=C2C=C3CC[C@@H]4C(C)(C)C(=O)[C@H](O)[C@@]4(C)[C@@H]3C[C@H]2OC1=O | 24.4 | – | Non-Toxic | 19.9 | – | – | – | – |
| C=C1C[C@@]23CC[C@@H]4C(C)(C)C(=O)CC[C@@]4(C)[C@@H]2C[C@@H]1[C@@H](O)C3=O | 32.3 | – | Non-Toxic | 24.5 | – | – | – | – |
| CC1=C2C=C3CC[C@@H]4C(C)(C)[C@H](O)C(=O)C[C@@]4(C)[C@@H]3C[C@H]2OC1=O | 20.4 | – | Non-Toxic | – | – | – | – | – |
| CC1=C2C=C3CC[C@@H]4C(C)(C)[C@H](O)CC[C@@]4(C)[C@]3(O)C[C@H]2OC1=O | 21.2 | – | Non-Toxic | – | – | – | – | – |
| CC(=O)O[C@@H]1[C@@H](C)/C=C/C(C)(C)C(=O)C[C@@H](O)/C(C)=C/[C@H]2[C@@H](OC(=O)c3ccccc3)[C@H](C)C[C@]12O | 69.3 | 28.7 | Non-Toxic | – | – | – | – | – |
| CC(=O)O[C@]12C[C@@H](C)[C@H](OC(=O)c3ccccc3)[C@@H]1/C=C(\C)[C@H](O)C[C@H]1[C@@H](/C=C(\C)C2=O)C1(C)C | 81.2 | 55.6 | Non-Toxic | 40.9 | 4.3 | > 30 | > 7 | – |
| C/C1=C\[C@H]2[C@@H](OC(=O)c3ccccc3)[C@H](C)C[C@]2(O)[C@H](O)[C@@H](C)/C=C/C(C)(C)C(=O)C[C@H]1O | 83.5 | 43.5 | Non-Toxic | – | – | – | – | – |
| CC(=O)O[C@]12C[C@@H](C)[C@H](O)[C@@H]1[C@H]1O[C@]1(C)[C@H](O)C[C@H]1[C@@H](/C=C(\C)C2=O)C1(C)C | 75.1 | 39.2 | Non-Toxic | – | – | – | – | – |
| CC1(C)C(=O)CC[C@]2(C)[C@@H]1CC[C@@]13CC[C@@H](C[C@H]12)[C@](O)(CO)C3 | 7.1 | – | Non-Toxic | – | – | – | – | – |
| CC(=O)O[C@@H]1[C@@H](C)/C=C/C(C)(C)C(=O)C[C@@H](OC(C)=O)/C(C)=C/[C@H]2[C@@H](OC(=O)c3ccccc3)[C@H](C)C[C@]12O | 72 | 30.2 | Non-Toxic | – | – | – | – | – |
| CC(=O)O[C@@H]1CC(=O)C(C)(C)/C=C/[C@@H](C)[C@@H](O)[C@@]2(OC(C)=O)C[C@@H](C)[C@H](OC(=O)c3ccccc3)[C@@H]2/C=C/1C | 86.5 | 62.2 | Non-Toxic | 60.2 | – | – | – | 36.9 |
| COC(=O)CCC(=O)O[C@@H]1C[C@H]2[C@@H](/C=C(\C)C(=O)[C@@]3(OC(C)=O)C[C@@H](C)[C@H](O)[C@@H]3/C=C/1C)C2(C)C | 89.4 | 47.6 | Non-Toxic | 49.7 | – | – | – | 29.7 |
| CC1=C2C=C3CC[C@@H]4C(C)(C)C(=O)CC[C@@]4(C)[C@]3(O)C[C@H]2OC1=O | 17.2 | – | Non-Toxic | – | – | – | – | – |
| CC1=C2C(=C[C@H]3[C@]4(C)CC[C@@H](O)C(C)(C)[C@H]4CC[C@]34O[C@H]24)OC1=O | 14.5 | – | Non-Toxic | – | – | – | – | – |
| CC1(C)[C@H](O)CC[C@]2(C)[C@@H]1CC[C@@]13CC[C@@H](C[C@H]12)[C@](O)(CO)C3 | 21 | – | Non-Toxic | – | – | – | – | – |
| CC(=O)O[C@@H]1[C@@H](C)/C=C/C(C)(C)C(=O)C[C@@H](O)/C(C)=C/[C@H]2[C@@H](OC(=O)c3ccccc3)[C@H](C)C[C@]12OC(C)=O | 84.2 | 59.8 | Non-Toxic | 75.4 | – | – | – | 44.6 |
